What was measured:
Assay in all cases: relative viability (nuclei count vs DMSO), 5 days (fraction); higher = more cells survive
TPCA-1 + Linsitinib = compound: C1=CC(=CC=C1C2=CC(=C(S2)NC(=O)N)C(=O)N)F [TPCA-1] + C[C@]1(O)C[C@@H](c2nc(-c3ccc4ccc(-c5ccccc5)nc4c3)c3c(N)nccn32)C1 [Linsitinib] (partner 1 µM)
Method in brief: (§1)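 Cells from lung cancer lines were seeded into 1536-well plates and, one day later, dosed by pin tool. Treatments were either a single drug or a fixed dose of an anchor drug with five library-drug doses (not always all listed) in √10 steps. After 5 days, nuclei were stained in a one-step fixation (final 0.05% Triton X-100, 1% formaldehyde, 1 ug/ml Hoechst) and counted on 4× images, and relative viability is the treated-to-vehicle nuclei ratio, as the median of duplicate plates.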

[1] = compound: C1/C(=C\C2=CC=CS2)/C(=O)/C(=C/C3=CC=CS3)/C1 + NC(=O)Nc1cc(-c2cccc(F)c2)sc1C(=O)N[C@H]1CCCNC1 [AZD7762] (partner 0.2 µM)
Method in brief: as §1

TPCA-1 + Palbociclib = compound: C1=CC(=CC=C1C2=CC(=C(S2)NC(=O)N)C(=O)N)F [TPCA-1] + CC(=O)c1c(C)c2cnc(Nc3ccc(N4CCNCC4)cn3)nc2n(C2CCCC2)c1=O [Palbociclib] (partner 0.5 µM)
Method in brief: as §1

[2] = compound: C[C@]12O[C@H](C[C@]1(O)CO)n1c3ccccc3c3c4c(c5c6ccccc6n2c5c31)CNC4=O [Lestaurtinib] + CC(=O)c1c(C)c2cnc(Nc3ccc(N4CCNCC4)cn3)nc2n(C2CCCC2)c1=O [Palbociclib] (partner 0.5 µM)
Method in brief: as §1

Row | Cell Line | relative viability (TPCA-1 + Linsitinib; first compound 0.04 µM) | relative viability (TPCA-1 + Linsitinib; first compound 0.1265 µM) | relative viability (TPCA-1 + Linsitinib; first compound 0.4 µM) | relative viability (TPCA-1 + Linsitinib; first compound 4 µM) | relative viability ([1]; first compound 0.2 µM) | relative viability ([1]; first compound 0.6325 µM) | relative viability ([1]; first compound 2 µM) | relative viability ([1]; first compound 6.325 µM) | relative viability ([1]; first compound 20 µM) | relative viability (TPCA-1 + Palbociclib; first compound 0.04 µM) | relative viability (TPCA-1 + Palbociclib; first compound 0.1265 µM) | relative viability (TPCA-1 + Palbociclib; first compound 0.4 µM) | relative viability (TPCA-1 + Palbociclib; first compound 1.265 µM) | relative viability (TPCA-1 + Palbociclib; first compound 4 µM) | relative viability ([2]; first compound 0.005 µM) | relative viability ([2]; first compound 0.01581 µM) | relative viability ([2]; first compound 0.05 µM) | relative viability ([2]; first compound 0.1581 µM) | relative viability ([2]; first compound 0.5 µM) | relative viability (TPCA-1 + Linsitinib; first compound 1.265 µM)
1 | NCI-H2405 | 1.05 | 0.806 | 0.988 | 0.914 | 0.958 | 0.757 | 0.867 | 0.716 | 0.715 | 0.565 | 0.507 | 0.525 | 0.446 | 0.478 | 0.518 | 0.546 | 0.492 | 0.515 | 0.275 | 
2 | NCI-H3122 | 1.11 | 0.983 | 0.981 | 1.02 | 0.983 | 0.919 | 0.968 | 0.956 | 0.967 | 0.189 | 0.166 | 0.185 | 0.22 | 0.181 | 0.201 | 0.21 | 0.2 | 0.229 | 0.22 | 0.985
3 | PC-3 [JPC-3] | 0.968 | 0.875 | 0.946 | 0.937 |  | 0.934 | 0.889 | 0.804 | 0.798 | 0.516 | 0.538 | 0.514 | 0.537 | 0.285 | 0.531 | 0.611 | 0.557 | 0.575 | 0.544 | 0.9
4 | PC-14 | 0.939 | 0.978 | 0.926 | 0.692 | 0.433 | 0.357 | 0.352 | 0.306 | 0.432 | 0.502 | 0.57 | 0.557 | 0.518 | 0.4 | 0.509 | 0.594 | 0.356 | 0.415 | 0.115 | 0.966
5 | RERF-LC-KJ | 1.02 | 0.82 | 0.857 | 0.905 | 1.09 | 1.04 | 1.05 | 0.87 | 1.06 | 1.12 | 1.04 | 1.04 | 1.03 | 0.892 | 1.15 | 1.15 | 0.845 | 0.87 | 0.565 | 0.896
